Measurements as given in paper PMC4387200 (Toxicology and applied pharmacology, 2015).
Like-named read-outs stand apart in the source and are kept apart here.

How the values were obtained:
[1] = target: T1, Human PXR (Homo sapiens, UniProt O75469); conditions: maximum response as percentage of the maximum response to rifampicin
T1 sequence (O75469 107-434): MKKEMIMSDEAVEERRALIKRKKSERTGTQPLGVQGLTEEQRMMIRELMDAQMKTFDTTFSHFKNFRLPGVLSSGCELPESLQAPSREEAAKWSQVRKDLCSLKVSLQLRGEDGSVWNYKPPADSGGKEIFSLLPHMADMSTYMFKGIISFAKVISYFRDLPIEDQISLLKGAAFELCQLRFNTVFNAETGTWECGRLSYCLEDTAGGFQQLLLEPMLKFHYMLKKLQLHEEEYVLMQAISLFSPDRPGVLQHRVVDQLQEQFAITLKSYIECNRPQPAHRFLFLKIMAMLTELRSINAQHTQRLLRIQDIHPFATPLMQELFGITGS

[2] = test system: Polar bear PXR; conditions: for Polar bear PXR Relative activation (%): maximum response as percentage of the maximum response to rifampicin; for Relative max induction (polar bear vs human): ratio of maximum induction via pbPXR to hPXR
[3] = target: T1, Human PXR; assay: in vitro
[4] = test system: polar bear PXR; assay: in vitro
[5] = target: T1, Human PXR
[6] = test system: Polar bear PXR

## Clc1ccc(-c2c(Cl)c(Cl)c(Cl)c(Cl)c2Cl)cc1Cl [PCB 190]
[1]
  Human PXR Relative activation (%): 46%
[2]
  Polar bear PXR Relative activation (%): 18%
  Relative max induction (polar bear vs human): 0.4

## C[Si]1(C)O[Si](C)(C)O[Si](C)(C)O[Si](C)(C)O1 [Octamethylcyclotetrasiloxane (D4), Octamethylcyclotetrasiloxane]
[3]
  fold induction: 4.3 ± 0.3
[4]
  fold induction: 1.1 ± 0.4
[1]
  Human PXR Relative activation (%): 44%
[2]
  Polar bear PXR Relative activation (%): 11%
  Relative max induction (polar bear vs human): 0.3

## Brc1c(Br)c(Br)c(Oc2c(Br)c(Br)c(Br)c(Br)c2Br)c(Br)c1Br [BDE 209]
[5]
  Human PXR RECh20: 16 µM
[1]
  Human PXR Relative activation (%): 26%
[2]
  Polar bear PXR Relative activation (%): 19%
  Relative max induction (polar bear vs human): 0.7

## Brc1ccc(Oc2cc(Br)c(Br)cc2Br)c(Br)c1 [BDE 99]
[5]
  Human PXR RECh20: 4.8 µM
[1]
  Human PXR Relative activation (%): 52%
[2]
  Polar bear PXR Relative activation (%): 16%
  Relative max induction (polar bear vs human): 0.3

## Brc1ccc(Oc2c(Br)cc(Br)cc2Br)c(Br)c1 [BDE 100]
[5]; human
  Human PXR RECh20: 6.6 µM
[3]
  fold induction: 3.8 ± 0.3
[4]
  fold induction: 1.3 ± 0.2
[1]
  Human PXR Relative activation (%): 39%
[2]
  Polar bear PXR Relative activation (%): 14%
  Relative max induction (polar bear vs human): 0.4

## Clc1cccc(Cl)c1Cl [1,2,3-trichlorobenzene (1,2,3-TCB), 1,2,3-trichlorobenzene]
[3]
  fold induction: 0.9 ± 0.1
[4]
  fold induction: 0.9 ± 0.3
[1]
  Human PXR Relative activation (%): 9%
[2]
  Polar bear PXR Relative activation (%): 9%
  Relative max induction (polar bear vs human): 0.9

## Brc1ccc(Oc2ccc(Br)cc2Br)cc1 [BDE 28]
[5]
  Human PXR RECh20: 11 µM
[1]
  Human PXR Relative activation (%): 31%
[2]
  Polar bear PXR Relative activation (%): 9%
  Relative max induction (polar bear vs human): 0.3

## Clc1ccc(C(c2ccc(Cl)cc2)C(Cl)(Cl)Cl)cc1 [4,4′-DDT, Dichlorodiphenyltrichloroethane]
[5]
  Human PXR RECh20: 9.3 µM
[6]
  Polar bear PXR RECh20: 11 µM
[1]
  Human PXR Relative activation (%): 53%
[2]
  Polar bear PXR Relative activation (%): 42%
  Relative max induction (polar bear vs human): 0.8

## Clc1cc(Cl)c(-c2c(Cl)cc(Cl)c(Cl)c2Cl)cc1Cl [PCB 183]
[1]
  Human PXR Relative activation (%): 28%
[2]
  Polar bear PXR Relative activation (%): 31%
  Relative max induction (polar bear vs human): 1.1

## Clc1ccccc1C(c1ccccc1)(c1ccccc1)n1ccnc1 [Clotrimazole, reference compound]
[6]; polar bear
  Polar bear PXR RECh20: 0.63 µM

## Clc1ccc(-c2cc(Cl)c(Cl)cc2Cl)cc1Cl [PCB 118]
[5]
  Human PXR RECh20: 34 µM
[1]
  Human PXR Relative activation (%): 25%
[2]
  Polar bear PXR Relative activation (%): 14%
  Relative max induction (polar bear vs human): 0.6

## O=c1cc(-c2ccccc2)oc2ccc3ccccc3c12 [β-naphtoflavone (BNF), β-naphtoflavone, reference compound]
[5]
  Human PXR RECh20: 0.069 µM
[6]
  Polar bear PXR RECh20: 0.69 µM
[1]
  Human PXR Relative activation (%): 28%
[2]
  Polar bear PXR Relative activation (%): 21%
  Relative max induction (polar bear vs human): 0.8

## Brc1cc(Br)c(Oc2cc(Br)c(Br)cc2Br)cc1Br [BDE 153]
[5]; human
  Human PXR RECh20: 3.9 µM
[3]
  fold induction: 4.4 ± 0.2
[4]
  fold induction: 1.7 ± 0.1
[1]
  Human PXR Relative activation (%): 45%
[2]
  Polar bear PXR Relative activation (%): 17%
  Relative max induction (polar bear vs human): 0.4

## Clc1ccc(-c2ccc(Cl)cc2Cl)c(Cl)c1 [PCB 47]
[1]
  Human PXR Relative activation (%): 27%
[2]
  Polar bear PXR Relative activation (%): 14%
  Relative max induction (polar bear vs human): 0.5

## C[Si]1(C)O[Si](C)(C)O[Si](C)(C)O[Si](C)(C)O[Si](C)(C)O1 [Decamethylcyclopentasiloxane (D5), Decamethylcyclopentasiloxane]
[5]; human
  Human PXR RECh20: 35 µM
[3]
  fold induction: 2.2 ± 0.2
[4]
  fold induction: 1.6 ± 0.2
[1]
  Human PXR Relative activation (%): 22%
[2]
  Polar bear PXR Relative activation (%): 16%
  Relative max induction (polar bear vs human): 0.7

## Hexabromocyclododecane [HBCD technical mixture]
[6]
  Polar bear PXR RECh20: 1.7 µM

## Clc1ccc(-c2ccc(Cl)c(Cl)c2Cl)cc1 [PCB 60]
[1]
  Human PXR Relative activation (%): 10%
[2]
  Polar bear PXR Relative activation (%): 8%
  Relative max induction (polar bear vs human): 0.7

## CO[C@H]1/C=C/O[C@@]2(C)Oc3c(C)c(O)c4c(O)c(c(/C=N/N5CCN(C)CC5)c(O)c4c3C2=O)NC(=O)/C(C)=C\C=C\[C@H](C)[C@H](O)[C@@H](C)[C@@H](O)[C@@H](C)[C@H](OC(C)=O)[C@@H]1C [Rifampicin, reference compound]
[5]; human
  Human PXR RECh20: 0.46 µM
[6]; polar bear
  Polar bear PXR RECh20: 1.1 µM

## Cl[C@H]1[C@H](Cl)[C@H](Cl)[C@@H](Cl)[C@H](Cl)[C@H]1Cl [α-hexachlorocyclohexane (α-HCH), α-hexachlorocyclohexane]
[5]; human
  Human PXR RECh20: 3.8 µM
[3]
  fold induction: 5.6 ± 1.5
[4]
  fold induction: 1.3 ± 0.8
[1]
  Human PXR Relative activation (%): 57%
[2]
  Polar bear PXR Relative activation (%): 13%
  Relative max induction (polar bear vs human): 0.2

## Clc1cc(Cl)c(-c2ccc(Cl)c(Cl)c2Cl)cc1Cl [PCB 138]
[1]
  Human PXR Relative activation (%): 12%
[2]
  Polar bear PXR Relative activation (%): 11%
  Relative max induction (polar bear vs human): 0.9

## Clc1cc(Cl)c(-c2cccc(Cl)c2Cl)cc1Cl [PCB 97]
[1]
  Human PXR Relative activation (%): 25%
[2]
  Polar bear PXR Relative activation (%): 28%
  Relative max induction (polar bear vs human): 1.1

## Clc1cc(Cl)c(-c2c(Cl)cc(Cl)c(Cl)c2Cl)c(Cl)c1 [PCB 184]
[1]
  Human PXR Relative activation (%): 33%
[2]
  Polar bear PXR Relative activation (%): 19%
  Relative max induction (polar bear vs human): 0.6

## Clc1ccc(Cl)c(Cl)c1 [1,2,4-trichlorobenzene (1,2,4-TCB), 1,2,4-trichlorobenzene]
[3]
  fold induction: 1 ± 0.1
[4]
  fold induction: 0.9 ± 0.3
[1]
  Human PXR Relative activation (%): 10%
[2]
  Polar bear PXR Relative activation (%): 9%
  Relative max induction (polar bear vs human): 0.9

## O=C(O)C(F)(F)C(F)(F)C(F)(F)C(F)(F)C(F)(F)C(F)(F)C(F)(F)C(F)(F)F [Perfluorononanoic acid (PFNA), Perfluorononanoic acid]
[1]
  Human PXR Relative activation (%): 11%
[2]
  Polar bear PXR Relative activation (%): 10%
  Relative max induction (polar bear vs human): 0.9

## Clc1ccc(-c2ccc(Cl)cc2Cl)cc1 [PCB 28]
[1]
  Human PXR Relative activation (%): 19%
[2]
  Polar bear PXR Relative activation (%): 12%
  Relative max induction (polar bear vs human): 0.6

## Brc1ccc(Oc2ccc(Br)cc2Br)c(Br)c1 [BDE 47]
[5]
  Human PXR RECh20: 5 µM
[1]
  Human PXR Relative activation (%): 59%
[2]
  Polar bear PXR Relative activation (%): 16%
  Relative max induction (polar bear vs human): 0.3

## Clc1ccc(Cl)c(-c2cc(Cl)ccc2Cl)c1 [PCB 52]
[1]
  Human PXR Relative activation (%): 11%
[2]
  Polar bear PXR Relative activation (%): 10%
  Relative max induction (polar bear vs human): 0.9

## Clc1ccc(Cl)c(-c2c(Cl)c(Cl)cc(Cl)c2Cl)c1 [PCB 151]
[1]
  Human PXR Relative activation (%): 72%
[2]
  Polar bear PXR Relative activation (%): 15%
  Relative max induction (polar bear vs human): 0.2

## Clc1ccc(Cl)c(-c2cc(Cl)c(Cl)cc2Cl)c1 [PCB 101]
[1]
  Human PXR Relative activation (%): 34%
[2]
  Polar bear PXR Relative activation (%): 19%
  Relative max induction (polar bear vs human): 0.6

## Clc1ccc(-c2cc(Cl)c(Cl)c(Cl)c2Cl)c(Cl)c1Cl [PCB 170]
[1]
  Human PXR Relative activation (%): 24%
[2]
  Polar bear PXR Relative activation (%): 15%
  Relative max induction (polar bear vs human): 0.6

## CC(C)(c1cc(Br)c(O)c(Br)c1)c1cc(Br)c(O)c(Br)c1 [Tetrabromobisphenol A (TBBPA), Tetrabromobisphenol A]
[5]
  Human PXR RECh20: 29 µM
  Human PXR Relative activation (%): 32%
[6]
  Polar bear PXR RECh20: 35 µM
  Polar bear PXR Relative activation (%): 39%
  Relative max induction (polar bear vs human): 1.2
